Assay [1] has as its system Saccharomyces cerevisiae. The assay is described as follows: Saccharomyces cerevisiae MIC assay (microdilution). Particulars: RPMI 1640 broth, 37 °C, 24 h, read-out: S. cerevisiae MIC. The format is cell-based. The procedure: We additionally assessed the rapalogs for antifungal activity using a standard Saccharomyces cerevisiae MIC assay. As expected, activity was similar to that observed for the mTORC1 pathway assay, likely through inhibition of TOR1 and TOR2.
Minimum Inhibitory Concentration (MIC) values for each compound were determined using the microdilution method. Briefly, stock solutions of the 6 test rapalogs (6.4 mg mL^−1 in methanol) were diluted 1:50 in RPMI 1640 broth (Sigma-Aldrich) to a working concentration of 128 µg ml^−1, and serially diluted in broth (1:2) in sterile, polypropylene 96-well plates, 100 µL per well. Saccharomyces cerevisiae was cultured in RPMI 1640 broth, 37 °C, 250 r.p.m., 18 h. […] A volume of 100 µL aliquots of this dilution were added to each well and mixed by gentle trituration. Plates were incubated at 37 °C for 24 h. The concentration of compound at which no visible growth was apparent was determined to be the MIC.
(Dilution methods test growth across graded concentrations, often in twofold steps.)

The target in assay [2] is FKBP12 (Homo sapiens, UniProt P62942). Nature of the assay: FKBP12 PPIase inhibition assay. The format is biochemical. Particulars: 10 °C, pH 8.0, 6 nM FKBP12, 60 µM SUC-ALPF-pNA, read-out: FKBP12 K i.
FKBP12, sequence (P62942 whole entry, species assumed): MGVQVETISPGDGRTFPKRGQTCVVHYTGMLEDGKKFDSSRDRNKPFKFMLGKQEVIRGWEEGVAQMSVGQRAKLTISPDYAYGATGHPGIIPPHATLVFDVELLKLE
Assay [3] relates to mTORC1 pathway (p-S6 formation).
Assay [4] deals with human macrophages challenged with B. pseudomallei. The format is cell-based.

Where only a bound is given, the exact number is not on record here.

As for `COC1CC2CCC(C)C(O)(O2)C(=O)C(=O)N2CCCCC2C(=O)OC(C(C)CC2CCC(O)CC2)CC(=O)C(C)C=C(C)C(O)C(OC)C(=O)C(C)CC(C)C=CC=CC=C1C` (stereo not shown) [Compound 1, 39-desmethoxyrapamycin], the MIC in assay [1] was below 0.25 µg/mL. Also, the Ki in assay [2] is 2.5 nM.

As for `COC(CC1CCC(C)C(O)(CC(=O)N2CCCCC2C(=O)O)O1)C(C)=CC=CC=CC(C)CC1CCC(O)CC1` (stereo not shown) [Compound 2], in assay [1], the MIC is above 64 µg/mL. The Ki in assay [2] is above 1000 nM. The compound further gave a half-inhibitory concentration (IC50) in assay [3] of 1000 nM.

With `C\C1=C/C=C/C=C/[C@@H](C)C[C@@H](C)C(=O)[C@H]2CC[C@@H](CC2)OC(=O)[C@@H]2CCCCN2C(=O)C(=O)[C@]2(O)O[C@@H](CC[C@H]2C)C[C@@H]1O` [Compound 3], in assay [1], the MIC was above 64 µg/mL. Besides, the Ki in assay [2] was 460 nM. The same compound returned an IC50 in assay [3] above 1900 nM.

Take `COC1CC2CCC(C)C(O)(CC(=O)N3CCCCC3C(=O)OC(C(C)CC3CCC(O)CC3)CC(=O)C(C)CC(C)C=CC=CC=C1C)O2` (stereo not shown) [Compound 5]: the MIC in assay [1] is below 64 µg/mL. In assay [2], the Ki was found to be 370 nM. For the same compound, the IC50 in assay [3] turned out to be 300 nM.

For `COC1CC2CCC(C)C(O)(O2)C(=O)C(=O)N2CCCCC2C(=O)OC(C(C)CC2CCC(O)CC2)CC=C(C)C(O)CC(=O)C(C)CC(C)C=CC=CC=C1C` (stereo not shown) [Compound 7], the “survival of human macrophages challenged with B. pseudomallei” value in assay [4] is “increase the survival”. The MIC in assay [1] was below 2 µg/mL. In addition, the Ki in assay [2] was 7.9 nM. For the same compound, in assay [3], inhibition was half-maximal at 100 nM (IC50).

For the compound `CO[C@H]1C[C@@H]2CC[C@@H](C)[C@@](O)(O2)C(=O)C(=O)N2CCCC[C@H]2C(=O)O[C@H]([C@H](C)C[C@H]2CC[C@H](O)CC2)CC(O)CC(=O)[C@H](C)/C=C(\C)[C@@H](O)CC(=O)[C@H](C)C[C@H](C)/C=C/C=C/C=C/1C` (stereo partly shown) [Compound 8], the MIC in assay [1] was below 2 µg/mL. The Ki in assay [2] worked out at 6.5 nM.

On to `CO[C@H]1C[C@@H]2CC[C@@H](C)[C@@](O)(O2)C(=O)C(=O)N2CCCC[C@H]2C(=O)O[C@H]([C@H](C)C[C@@H]2CC[C@@H](O)[C@H](OC)C2)CC(=O)[C@H](C)/C=C(\C)[C@@H](O)[C@@H](OC)C(=O)[C@H](C)C[C@H](C)/C=C/C=C/C=C/1C` [Rapamycin, reference compound], for which the minimal inhibitory concentration (MIC) in assay [1] was below 0.25 µg/mL. This compound came in with an IC50 in assay [3] below 1 nM.

Usually MIC stands for the smallest concentration in the dilution series that meets the test's criterion for growth inhibition. By IC50 is commonly meant the concentration at which inhibition is half-maximal.
